Experimental findings from patent US20230021448A1, “COMPOUNDS AND COMPOSITIONS FOR TREATING CONDITIONS ASSOCIATED WITH STING ACTIVITY” (IFM Due, Inc., priority 2019, published 2023) are described below.

In this test the target is T1, STING (Homo sapiens, UniProt Q86WV6, G230A/H232R/R293Q/R71H).
T1 construct: host or cells: THP1-Dual KO-IFNAR2 cells
T1 sequence (Q86WV6 whole entry R71H/G230A/H232R/R293Q): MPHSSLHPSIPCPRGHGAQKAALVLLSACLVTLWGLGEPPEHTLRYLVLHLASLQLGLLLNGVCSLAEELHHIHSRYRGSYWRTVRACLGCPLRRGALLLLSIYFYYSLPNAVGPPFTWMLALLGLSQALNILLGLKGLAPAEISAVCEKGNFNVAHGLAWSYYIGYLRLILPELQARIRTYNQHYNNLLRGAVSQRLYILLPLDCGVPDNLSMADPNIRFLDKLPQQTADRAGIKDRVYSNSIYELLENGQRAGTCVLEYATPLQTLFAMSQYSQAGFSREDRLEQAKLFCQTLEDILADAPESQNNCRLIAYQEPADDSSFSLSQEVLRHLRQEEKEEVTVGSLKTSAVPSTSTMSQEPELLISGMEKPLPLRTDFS
The experiment in a line: STING reporter assay: luciferase reporter activity in THP1-Dual KO-IFNAR2 cells stimulated with 2'3'cGAMP. The class given is cell-based. The settings on record: 2′3′cGAMP 15 μM final, 24h, read-out: hSTING: EC50. The method, then:
STING pathway activation by the compounds described herein was measured using THIP1-Dua1™ cells (KO-IFNAR2).
TTIP1-Dual™ KO-IFNAR2 Cells (obtained from invivogen) were maintained in RPMI, 10% FCS, 5 ml P/S, 2 mM L-glut, 10 mM Hepes, and 1 mM sodium pyruvate. Compounds were spotted in empty 384 well tissue culture plates (Greiner 781182) by Echo for a final concentration of 0.0017-100 μM. Cells were plated into the TC plates at 40 μL per well, 2×10E6 cells/mL. For activation with STING ligand, 2′3′cGAMP (MW 718.38, obtained from Invivogen), was prepared in Optimem media.
The following solutions were prepared for each 1×384 plate: • Solution A: 2 mL Optimem with one of the following stimuli: • […] • Solution B: 2 mL Optimem with 60 μL Lipofectamine 2000->Incubate 5 min at RT
2 mL of solution A and 2 ml Solution B was mixed and incubated for 20 min at room temperature (RT). 20 uL of transfection solution (A+B) was added on top of the plated cells, with a final 2′3′cGAMP concentration of 15 μM. The plates were then centrifuged immediately at 340 g for 1 minute, after which they were incubated at 37° C., 5% C02, >98% humidity for 24h. Luciferase reporter activity was then measured. EC50 values were calculated by using standard methods known in the art.
Luciferase reporter assay: 10 μL of supernatant from the assay was transferred to white 384-plate with flat bottom and squared wells. One pouch of QUANTI-Luc™ Plus was dissolved in 25 mL of water. 100 μL of QLC Stabilizer per 25 mL of QUANTI-Luc™ Plus solution was added. 50 μL of QUANTI-Luc™ Plus/QLC solution per well was then added. Luminescence was measured on a Platereader (e.g., Spectramax I3X (Molecular Devices GF3637001)).
Luciferase reporter activity was then measured. EC50 values were calculated by using standard methods known in the art.
A general note: In a reporter assay the amount or activity of a reporter protein is the signal.
On to `CC1(CNC(=O)C(=O)Nc2c[nH]c3cc(F)c(F)cc23)CCC(F)(F)CC1` [Compound 153, N1-((4,4-difluoro-1-methylcyclohexyl)methyl)-N2-(5,6-difluoro-1H-indol-3-yl)oxalamide], for which the EC50 (as a rule, the midpoint of the concentration-response curve) fell in the range of 1000 to 5000 nM. Under `O=C(NCc1ccccc1C(F)(F)F)C(=O)Nc1c[nH]c2cc(F)c(F)cc12` [Compound 165, N1-(5,6-difluoro-1H-indol-3-yl)-N2-(2-(trifluoromethyl)benzyl)oxalamide] stands 40 to 200 nM; under `CCC(NC(=O)C(=O)Nc1c[nH]c2cc(F)c(F)cc12)c1cccc(C(F)(F)F)c1` (single isomer, unassigned) [Compound 236], 200 to 1000 nM. Under `O=C(Nc1c[nH]c2cc(F)c(F)cc12)C(=O)NC1CCCC2(CCCCC2)C1` (single isomer, unassigned) [Compound 257] stands 200 to 1000 nM; under `O=C(NCc1ccc(C(F)(F)F)c(Cl)c1)C(=O)Nc1c[nH]c2ccc(-c3cccc(CO)c3)cc12` [Compound 349, N-(3-chloro-4-(trifluoromethyl)benzyl)-N′-(5-(3-(hydroxymethyl)phenyl)-1H-indol-3-yl)oxalamide], 1000 to 5000 nM. Under `O=C(Nc1c[nH]c2cc(F)c(F)cc12)C(=O)NC1CCC2(CCCCC2)CC1` [Compound 109] stands 200 to 1000 nM. Consider `O=C(NCCOc1cccnc1)C(=O)Nc1c[nH]c2cc(F)c(F)cc12` [Compound 290, N-(5,6-difluoro-1H-indol-3-yl)-N′-[2-(pyridin-3-yloxy)ethyl] ethanediamide], for which the EC50 lay in the range of 5000 to 100000 nM. For the compound `CC(CNC(=O)C(=O)Nc1c[nH]c2cc(F)c(F)cc12)Oc1ccc(C(F)(F)F)cc1` (stereo not drawn) [Compound 158, N1-(5,6-difluoro-1H-indol-3-yl)-N2-(2-(4-(trifluoromethyl)phenoxy)propyl) oxalamide], the EC50 was 200 to 1000 nM.

As for `O=C(Nc1c[nH]c2cc(F)c(Cl)cc12)C(=O)N[C@H]1CC[C@H](Oc2ccc(C(F)(F)F)cn2)CC1` [Compound 209, N-(5-chloro-6-fluoro-1H-indol-3-yl)-N′-(trans-4-((5-(trifluoromethyl)pyridin-2-yl)oxy)cyclohexyl)oxalamide], the EC50 fell in the range of 200 to 1000 nM. As to `CC(C)(C)OC(=O)N1CCC2(CCC(NC(=O)C(=O)Nc3c[nH]c4cc(F)c(F)cc34)CC2)CC1` [Compound 297, tert-butyl 9-{[(5,6-difluoro-1H-indol-3-yl)carbamoyl] formamido}-3-azaspiro[5.5]undecane-3-carboxylate], the EC50 is 200 to 1000 nM. For `O=C(Nc1c[nH]c2cc(F)c(F)cc12)C(=O)N[C@H]1CC[C@@H](Oc2ccc(C(F)(F)F)cn2)CC1` [Compound 229] the value was 1000 to 5000 nM. For the compound `COc1ccc(CNC(=O)C(=O)Nc2c[nH]c3cc(F)c(F)cc23)cc1C(F)(F)F` [Compound 159, N1-(5,6-difluoro-1H-indol-3-yl)-N2-(4-methoxy-3-(trifluoromethyl)benzyl)oxalamide], the EC50 lay in the range of 200 to 1000 nM. For the compound `Cc1ccc(Cl)cc1NC(=O)C(=O)Nc1c[nH]c2cc(F)c(F)cc12` [Compound 130, N1-(5-chloro-2-methylphenyl)-N2-(5,6-difluoro-1H-indol-3-yl)oxalamide], the EC50 is 200 to 1000 nM. For the compound `CCC(NC(=O)C(=O)Nc1c[nH]c2cc(F)c(F)cc12)c1cccc(C(F)(F)F)c1` (stereo not drawn) [Compound 311, N-(5,6-difluoro-1H-indol-3-yl)-N′-{1-[3-(trifluoromethyl)phenyl]propyl} ethanediamide], the EC50 lay in the range of 200 to 1000 nM. With `O=C(Nc1c[nH]c2cc(F)c(F)cc12)C(=O)NC1CCC(Oc2ccc(C(F)(F)F)cn2)CC1` (stereo not drawn) [Compound 255], the EC50 fell in the range of 5000 to 100000 nM. As for `O=C(NCc1cnc(C(F)(F)F)c(Cl)c1)C(=O)Nc1c[nH]c2cc(F)c(F)cc12` [Compound 173], the EC50 was in the range of 200 to 1000 nM. As for `N#Cc1ccc2[nH]cc(NC(=O)C(=O)NCc3ccc(C(F)(F)F)c(Cl)c3)c2c1` [Compound 321], the EC50 lay within 200 to 1000 nM.

For `O=C(NCc1ccc(C(F)(F)F)nc1)C(=O)Nc1c[nH]c2cc(F)c(F)cc12` [Compound 344], the EC50 fell in the range of 200 to 1000 nM. Consider `Cc1ccc(CNC(=O)C(=O)Nc2c[nH]c3ccc(Br)cc23)cc1C(F)(F)F` [Compound 124], for which the EC50 was in the range of 200 to 1000 nM.

For the compound `CN(C(=O)CNC(=O)C(=O)Nc1c[nH]c2cc(F)c(F)cc12)c1ccccc1` [Compound 306, N-(5,6-difluoro-1H-indol-3-yl)-N′-{[methyl(phenyl)carbamoyl]methyl} ethanediamide], the EC50 lay in the range of 1000 to 5000 nM. As to `O=C(Nc1c[nH]c2cc(F)c(F)cc12)C(=O)N1CCC2(CCCCC2)CC1` [Compound 252], the 50% effective concentration (EC50) is 1000 to 5000 nM. Under `C[C@@H](NC(=O)C(=O)Nc1c[nH]c2cc(F)c(F)cc12)c1cccc(C(F)(F)F)c1` [Compound 291, N-(5,6-difluoro-1H-indol-3-yl)-N′-[(1R)-1-[3-(trifluoromethyl)phenyl]ethyl] ethanediamide] stands 200 to 1000 nM; under `O=C(Nc1c[nH]c2cc(F)c(F)cc12)C(=O)NC1CCc2ccccc2C1` (stereo not drawn) [Compound 313, N-(5,6-difluoro-1H-indol-3-yl)-N′-(1,2,3,4-tetrahydronaphthalen-2-yl)ethanediamide], 200 to 1000 nM. With `CC(C)(O)c1cccc(-c2ccc3[nH]cc(NC(=O)C(=O)NCc4ccc(C(F)(F)F)c(Cl)c4)c3c2)c1` [Compound 340], the EC50 lay in the range of 1000 to 5000 nM. For `COc1ccc(CCNC(=O)C(=O)Nc2c[nH]c3cc(F)c(F)cc23)cn1` [Compound 299, N-(5,6-difluoro-1H-indol-3-yl)-N′-[2-(6-methoxypyridin-3-yl)ethyl]ethanediamide], the EC50 was in the range of 1000 to 5000 nM.

For the compound `CC(NC(=O)C(=O)Nc1c[nH]c2cc(F)c(F)cc12)c1cccc(OC(F)(F)F)c1` (stereo not drawn) [Compound 288, N-(5,6-difluoro-1H-indol-3-yl)-N′-{1-[3-(trifluoromethoxy)phenyl]ethyl} ethanediamide], the EC50 lay within 200 to 1000 nM. For `CN(C(=O)C(=O)Nc1c[nH]c2cc(F)c(F)cc12)c1ccc(C(F)(F)F)cc1` [Compound 114] the value was 1000 to 5000 nM; for `O=C(Nc1ccc2c(c1)CCCC2=O)C(=O)Nc1c[nH]c2cc(F)c(F)cc12` [Compound 268, N-(5,6-difluoro-1H-indol-3-yl)-N′-(5-oxo-5,6,7,8-tetrahydro-naphthalen-2-yl)ethanediamide], 200 to 1000 nM; for `O=C(NC[C@@H](c1ccccc1)C(F)F)C(=O)Nc1c[nH]c2cc(F)c(F)cc12` [Compound 348], 200 to 1000 nM. Turning to `O=C(Nc1c[nH]c2cc(F)c(F)cc12)C(=O)NC1CCC(OCC(F)F)CC1` (stereo not drawn) [Compound 178], the EC50 fell in the range of 200 to 1000 nM. As for `N#Cc1ccc(OC2CCC(NC(=O)C(=O)Nc3c[nH]c4cc(F)c(F)cc34)CC2)cc1` (stereo not drawn) [Compound 270, N′-[4-(4-cyanophenoxy)cyclohexyl]-N-(5,6-difluoro-1H-indol-3-yl)ethanediamide], the EC50 lay within 200 to 1000 nM. In the case of `O=C(NCCC1CC2CCC1C2)C(=O)Nc1c[nH]c2cc(F)c(F)cc12` (stereo not drawn) [Compound 190], the EC50 lay in the range of 200 to 1000 nM. With `O=C(NCc1ccc(Cl)cc1C(F)(F)F)C(=O)Nc1c[nH]c2cc(F)c(F)cc12` [Compound 160, N1-(4-chloro-2-(trifluoromethyl)benzyl)-N2-(5,6-difluoro-1H-indol-3-yl)oxalamide], the EC50 fell in the range of 200 to 1000 nM.

As to `Cc1ccc(CNC(=O)C(=O)Nc2c[nH]c3ccc(-c4cnn(C(C)C)c4)cc23)cc1C(F)(F)F` [Compound 168], the EC50 was in the range of 200 to 1000 nM. Consider `O=C(NCc1cccc(OC(F)(F)F)c1)C(=O)Nc1c[nH]c2cc(F)c(F)cc12` [Compound 166, N1-(5,6-difluoro-1H-indol-3-yl)-N2-(3-(trifluoromethoxy)benzyl)oxalamide], for which the EC50 was 200 to 1000 nM. Under `O=C(NCc1cccc(C(F)(F)F)c1F)C(=O)Nc1c[nH]c2cc(F)c(F)cc12` [Compound 163, N1-(5,6-difluoro-1H-indol-3-yl)-N2-(2-fluoro-3-(trifluoromethyl)benzyl)oxalamide] stands 200 to 1000 nM; under `O=C(Nc1c[nH]c2cc(F)c(F)cc12)C(=O)N[C@H]1CC[C@H](Oc2ccc(C(F)(F)F)cc2)CC1` [Compound 250, N-(5,6-difluoro-1H-indol-3-yl)-N′-(trans-4-(4-(trifluoromethyl)phenoxy)cyclohexyl)oxalamide], 40 to 200 nM. As for `O=C(Nc1c[nH]c2cc(F)c(F)cc12)C(=O)N[C@H]1CCC[C@H](Oc2ccc(C(F)(F)F)cc2)C1` (single isomer, unassigned) [Compound 227], the EC50 lay in the range of 40 to 200 nM. Turning to `Cc1cc(NC(=O)C(=O)Nc2c[nH]c3cc(F)c(F)cc23)ccc1OC(F)(F)F` [Compound 289, N-(5,6-difluoro-1H-indol-3-yl)-N′-[3-methyl-4-(trifluoromethoxy)phenyl] ethanediamide], the EC50 fell in the range of 40 to 200 nM.
